Results published in patent US11638706B2, “Methods for treating Huntington's disease” (PTC Therapeutics, Inc., priority 2015, dated 2023).

Tested on: Huntingtin protein (HTT)
Experiment: Endogenous Huntingtin Protein Assay (MSD electrochemiluminescence ELISA; MW1 or MAB2166 capture, #5656S detection)
Type: cell-based, human
Procedure: The Endogenous Huntingtin Protein assay used in Example 2 was developed using the Best Pair antibodies identified in Table 2, providing highly sensitive, high-throughput detection assays for polyglutamine-expanded (mHTT) and total human HTT in multiple cell systems. The platform used for the assay is the ELISA-based Meso Scale Discovery (MSD) electrochemiluminescence assay platform.
Meso Scale Discovery (MSD) 96-well or 384-well plates were coated overnight at 4° C. with MW1 (expanded polyglutamine) or MAB2166 monoclonal antibody (for capture) at a concentration of 1 μg/mL in PBS (30 μL per well). Plates were then washed three times with 300 μL wash buffer (0.05% Tween-20 in PBS) and blocked (100 μL blocking buffer; 5% BSA in PBS) for 4-5 hours at room temperature with rotational shaking and then washed three times with wash buffer.
Samples (25 μL) were transferred to the antibody-coated MSD plate and incubated overnight at 4° C. After removal of the lysates, the plate was washed three times with wash buffer, and 25 μL of #5656S (Cell signaling; rabbit monoclonal) secondary antibody (diluted to 0.25 μg/mL in 0.05% Tween-20 in blocking buffer) was added to each well and incubated with shaking for 1 Hour at room temperature. Following incubation with the secondary antibody, the wells were rinsed with wash buffer after which 25 μL of goat anti-rabbit SULFO TAG secondary detection antibody (required aspect of the MSD system) (diluted to 0.25 μg/mL in 0.05% Tween-20 in blocking buffer) was added to each well and incubated with shaking for 1 hour at room temperature. After rinsing three times with wash buffer, 150 μL of read buffer T with surfactant (MSD) were added to each empty well, and the plate was imaged on a SI 6000 imager (MSD) according to manufacturers' instructions provided for 96- or 384-well plates.

Row | SMILES | IC50
1 | CN(c1ccc(-c2ccc3nccn3c2)nn1)C1CC(C)(C)NC(C)(C)C1 [Cpd 16, 6-(imidazo[1,2-a]pyridin-6-yl)-N-methyl-N-(2,2,6,6-tetramethylpiperidin-4-yl)pyridazin-3-amine] | 3 to 9 µM
2 | CC1(C)CC(Oc2ccc(-c3ccc(-c4cn[nH]c4)cc3)nn2)CC(C)(C)N1 [Cpd 435, 3-[4-(1H-pyrazol-4-yl)phenyl]-6-[(2,2,6,6-tetramethylpiperidin-4-yl)oxy]pyridazine] | 0.5 to 1 µM
3 | CC1(C)CC(Oc2ccc(-c3ccc(O)cc3O)nn2)CC(C)(C)N1 [Cpd 455, 4-{6-[(2,2,6,6-tetramethylpiperidin-4-yl)oxy]pyridazin-3-yl}benzene-1,3-diol] | 3 to 9 µM
4 | CC1(C)CC(Oc2ccc(-c3ccc(-n4ccnc4)cc3O)nn2)CC(C)(C)N1 [Cpd 417, 5-(1H-imidazol-1-yl)-2-{6-[(2,2,6,6-tetramethylpiperidin-4-yl)oxy]pyridazin-3-yl}phenol] | ≤ 0.1 µM
5 | Cn1cc(-c2ccc(-c3ccc(OC4CC(C)(C)NC(C)(C)C4)nn3)s2)cn1 [Cpd 449, 3-[5-(1-methyl-1H-pyrazol-4-yl)thiophen-2-yl]-6-[(2,2,6,6-tetramethylpiperidin-4-yl)oxy]pyridazine] | 3 to 9 µM
